Patent US20140309295A1, “ANTIEPILEPTIC, HYPOCHOLESTEROLEMIC AND NEUROPROTECTIVE COMPOUND” (NEURON BIOPHARMA, S.A., priority 2009, published 2014)

How the values were obtained:
[1] = tested on: FVB/NHan mice inoculated with kainate (KA); test: Mortality caused by kainate in mice (Kaplan-Meier); assay type: in vivo; conditions: 50 mg/kg i.p.
Protocol: (§1) All the animals included for the experimental process were 12-week old males of the FVB/NHan strain. The experiments were conducted strictly following the Guidance on the Operation of Animals (Scientific Procedures, Act. 1986). The animals had their respective quarantine period and were treated with maximum precaution to minimize possible contaminations for inoculations and handling. […]
The deaths were recorded during the entire time the assay lasted, and the results are shown in FIG. 8 by means of Kaplan-Meier survival curves. […]

[2] = tested on: FVB/NHan mice inoculated with kainate (KA); test: Neuronal death in the hippocampus of mice caused by kainate (hematoxylin-eosin); assay type: in vivo; conditions: 50 mg/kg i.p., 7 days
Protocol: as §1

[3] = tested on: caspase 3/7; test: Inhibition of camptothecin-induced activation of caspase 3/7 in SK-N-MC cells; assay type: cell-based, human; conditions: 50 μM CPT, 6 h
Protocol: The assay was performed on human neuroblastoma SK-N-MC cells in culture from the American Type Culture Collection (ATCC), in all cases strict rules of sterility were followed and the manipulation was performed in class II biological safety cabinets following European standard EN 12469. The cells were maintained in the following culture medium: Minimum Essential Medium Eagle (MEM) supplemented with 1 mM sodium pyruvate, 2 mM L-glutamine, 0.1 mM non-essential amino acids, 0.05 mg/ml gentamicin and 10% fetal bovine serum. The induction of apoptosis on the cells in culture was performed by means of incubation with camptothecin (CPT), which triggers cell apoptosis activation. The apoptosis was determined by means of the measurement of the activation of effector caspases, caspase 3 or caspase 7, for which a kit for the fluorometric detection of active caspase 3/7 (Apo-ONE® Homogeneous Caspase-3/7, Promega) was used. The active caspase 3 or 7 of the cells cause the rupture of a substrate, which leads to fluorescence emission, which is read by means of a fluorometer. The effect of the pretreatment of compound NST0037 at 10 and 40 μM on the activation of caspase 3/7 caused by 50 μM of camptothecin (CPT) in the SK-N-MC cells was thus analyzed. These cells, not exceeding 15 passages, were seeded on 96-well plates treated for adherent cells with a cell concentration of 5×10^4 cells/well, 3 wells of the plate were seeded for each condition of the assay. After 24 hours of cell incubation at 37° C. and 5% CO2, the pretreatment with NST0037 at 10 and 40 μM was performed. […] On the following day, fluorescence was measured (499/521 nm, […]).

CCC(CC)C(=O)O[C@H]1C[C@@H](C)C=C2C=C[C@H](C)[C@H](CC[C@@H]3C[C@@H](O)CC(=O)O3)[C@H]21 [NST0037, (1S,2S,6R,8S,8aR)-1,2,6,7,8,8a-hexahydro-3,7-dimethyl-8-[2-[(2R,4R)-tetrahydro-4-hydroxy-6-oxo-2H-pyran-2-yl]ethyl]-1-naphthalenyl-2-ethyl-butyrate]
mortality caused by KA (survival) ([1]; NST0037+KA+NST0037 regimen): protected against death
survival of the animals vs PBS+KA+PBS ([1]; PBS+KA+NST0037 regimen): increases
neuronal death in hippocampal CA1 and CA2 regions ([2]; NST0037+KA+NST0037 regimen, KA 25 mg/Kg): completely protected against neuronal death
neuronal death in hippocampal CA1 and CA2 regions ([2]; PBS+KA+NST0037 regimen (treatment after KA)): qualitatively reduced neuronal death and damage
inhibition of caspase 3/7 with respect to camptothecin ([3]; pretreatment 10 μM NST0037): 26%
inhibition of caspase 3/7 with respect to camptothecin ([3]; pretreatment 40 μM NST0037): 33%
